# Data as given in US12030891B2, “Xanthonic compounds and their use as antifouling agents” (CIIMAR—CENTRO INTERDISCIPLINAR DE INVESTIGACAO MARINHA E …, priority 2018, dated 2024).
# How the values were obtained:
# Artemia salina = Artemia salina lethality bioassay; type: in vivo; settings: even at 50 μM, 48 h of exposure
# Procedure: General toxicity to non-target species was evaluated using the brine shrimp (Artemia salina) lethality test (Meyer et al., 1982). A. salina cysts were allowed to hatch in nutrient-enriched seawater for approximately 48 hours at 25° C. Newly hatched instar I nauplii were harvested for toxicity test performed in 96-wells microplates with eight replicates per condition and 15-20 nauplii per well. Test solutions of the most promising sulfated antifouling compounds (50 and 25 μM) were prepared in filtered seawater. K2Cr2O7 (13.6 μM) was included as positive control and DMSO as negative control. Percentage of mortality was determined at 48 h of exposure.
# [1] = test system: Mytilus galloprovincialis larvae; experiment: Anti-settlement bioassay on xanthonic based marine coatings; type: in vivo; settings: for reduction in the larvae settlement: incorporated in polyurethane (PU) marine paint at 2 wt %; for reduction of larval settlement: polyurethane based marine paint coating (1.7 wt. %)
# Procedure: None instead, and depending on the xanthonic chemical functionalities and density, minor adjustments on those proportions were performed, in order to maintain the main coatings properties (e.g. curing time and adhesion). In addition, and to promote the compatibility and homogeneity of the antifoulants in the corresponding polymeric formulations, a prior dissolution step, in accurate pure and dehumidified organic solvents, may be comprised, followed by its addition and blending to the paint components system. The selection and content of the organic solvent must also rely on its compatibility with the components of each polymeric system.
# The antifouling effectiveness of xanthonic based marine coating formulations was assessed by an in vivo anti-settlement bioassay on coated culture multiwell plates, using Mytilus galloprovincialis adhesive mussel plantigrades larvae as target species.
# [2] = test system: Phaeodactylum tricornutum; experiment: Algae growth inhibition test (OECD 201); type: cell-based
# Procedure: This test was executed using […], which contains all the material necessary to perform growth inhibition tests with the marine diatom Phaeodactylum Tricornutum. The species of alga Phaeodactylum Tricornutum, were incubated with the testing leaching samples, for 72 hours, in disposable cells of 10 cm path-length. […] This terminology is used instead of the standard EC50 when the test material is not completely soluble at the test treat rates.
# [3] = Luminescent Vibrio fischeri ecotoxicity assay (ISO11348); type: cell-based; settings: luminescent Vibrio fischeri bacteria (NRRL-B-11177), contact time of 30 min, read-out: LC50 (inhibition of light radiation emitted)
# Procedure: Luminescent Vibrio fischeri ecotoxicity assessment (ISO11348) was performed by IK4 TEKNIKER accordingly to the EU hazard assessment of substances and European Ecolabel (ISO 113482). Luminescent Vibrio fischeri bacteria test (NRRL-B-11177) was used as a standard test to evaluate the ecotoxicity of the most promising AF compounds. Vibrio fischeri bacteria from HACH-LANGE GmbH were grown in laboratory in standard conditions according to guidelines and exposed to a dilution serial of each compound (1000, 500, 250, 125, 62.5 mg/L). After 5, 15 and 30 min of exposure, the light emitted as a by-product of Vibrio fischeri cellular respiration was measured at 490 nm. Any inhibition of cellular activity results in a decreased rate of respiration and a corresponding decrease in the rate of luminescence. The decrease of bacterial luminescence measured after 5, 15 or 30 min of exposition was used as test endpoint. Luminescence was measured using a LUMIStox photometer from DR LANGE, after a contact time of 15 min and 30 min at 15±1° C., taking into account a correction factor, fk, which is a measure of intensity change of control samples during the exposure time.
# The pH of all samples was within the interval 6.0-8.5. A 2% solution of sodium chloride (NaCl) in deionized water (20 g/L) was used as dilution medium and K2Cr2O7 11.3 μg·mL^−1) was used as positive control.
# [4] = Leaching test of antifoulant from coatings (adapted from ISO15181); type: physicochemical; settings: PU coating, 45 days submerged in artificial seawater
# Daphnia magna = experiment: Daphnia acute immobilization test (OECD 202); type: in vivo
# Procedure: This test was performed using DAPHTOXKIT F MAGNATM. Daphnia magna are commonly known as water fleas, due to their jumping swimming resemblance to the movement of the fleas. Its short life span and reproductive capabilities make it an ideal organism for analytical use.
# The swimming capability of Daphnia Magna was assessed after 48 hours of exposure to the diluted testing samples. The Daphnia were bred in the laboratory and should be no more than 24 hours old. The number of immobilized Daphnia was registered at 24 hours and 48 hours, for the calculation of EL50 and comparison with the control values. The EL50 is the effective concentration of the sample that is expected to cause immobilization to 50% of Daphnia.
# Note that for this toxicity test, the leaching was obtained only from the WAF method test using the samples and Daphnia's mineral medium as […] because standard seawater is harmful to Daphnia.
compound,measurement,setting,value
"O=c1c2ccccc2oc2c(O)c(O)ccc12 [3,4dOHx, 3,4-dihydroxy-9H-xanthen-9-one]",toxicity to Artemia salina nauplii,Artemia salina,non-toxic effects
same,reduction in the larvae settlement,[1]; after 40 h,about 80%
same,reduction in the larvae settlement,[1]; after the first 15 h,55%
same,EL50 (72 h) alga growth inhibition,[2],> 100 µg/mL
same,50% inhibition of luminescence concentration (EC50) at 30 min,[3],> 750 µg/mL
same,incorporated antifoulant leached out of the polymeric matrix,[4],0.008%
"O=C(O)COc1ccc2c(=O)c3ccccc3oc2c1OCC(=O)O [D3,4 COOHX, 2,2′-((9-oxo-9H-xanthene-3,4-diyl)bis(oxy))diacetic acid]",toxicity to Artemia salina nauplii,Artemia salina,non-toxic effects
"COC(=O)COc1ccc2c(=O)c3ccccc3oc2c1OCC(=O)OC [D3,4 OCH3X, dimethyl 2,2′-((9-oxo-9H-xanthene-3,4-diyl)bis(oxy))diacetate]",toxicity to Artemia salina nauplii,Artemia salina,non-toxic effects
"COc1cc(C=O)c2c(=O)c3ccccc3oc2c1OC [XA11, 3,4-dimethoxy-9-oxo-9H-xanthene-1-carbaldehyde]",toxicity to Artemia salina nauplii,Artemia salina,non-toxic effects
"COc1cc(CO)c2c(=O)c3ccccc3oc2c1OC [XA12, 1-(hydroxymethyl)-3,4-dimethoxy-9H-xanthen-9-one]",toxicity to Artemia salina nauplii,Artemia salina,non-toxic effects
"COc1cc(C)c2c(=O)c3ccccc3oc2c1OC [XA13, 3,4-dimethoxy-1-methyl-9H-xanthen-9-one]",reduction of larval settlement,[1]; after 40 h,29%
same,reduction of larval settlement,[1]; first 15 h,50%
"COc1cc(C(Br)Br)c2c(=O)c3ccccc3oc2c1OC [XA14, 1-(dibromomethyl)-3,4-dimethoxy-9H-xanthen-9-one]",toxicity to Artemia salina nauplii,Artemia salina,non-toxic effects
"COc1cc(CNCCN2CCOCC2)c2c(=O)c3ccccc3oc2c1OC [XA15, 3,4-dimethoxy-1-(((2-morpholinoethyl)amino)methyl)-9H-xanthen-9-one]",toxicity to Artemia salina nauplii,Artemia salina,non-toxic effects
"COc1cc(CN2CCN(CCO)CC2)c2c(=O)c3ccccc3oc2c1OC [XA18, 1-((4-(2-hydroxyethyl)piperazin-1-yl)methyl)-3,4-dimethoxy-9H-xanthen-9-one]",toxicity to Artemia salina nauplii,Artemia salina,non-toxic effects
"COc1cc(CN2CCc3c(N)cccc3C2)c2c(=O)c3ccccc3oc2c1OC [XA20, 1-((5-amino-3,4-dihydroisoquinolin-2(1H)-yl)methyl)-3,4-dimethoxy-9H-xanthen-9-one]",EL50 (48 h) immobility,Daphnia magna,> 300 µg/mL
same,EL50 (72 h) alga growth inhibition,[2],> 125 µg/mL
same,50% inhibition of luminescence concentration (EC50) at 30 min,[3],> 300 µg/mL
"COc1cc(CN2CCCCC2)c2c(=O)c3ccccc3oc2c1OC [XA22, 3,4-dimethoxy-1-(piperidin-1-ylmethyl)-9H-xanthen-9-one]",toxicity to Artemia salina nauplii,Artemia salina,non-toxic effects
"CC1(C)CCc2cc3c(=O)c4ccccc4oc3c(O)c2O1 [XP13, 12-hydroxy-2,2-dimethyl-3,4-dihydro-2H,6H-pyrano[3,2-b]xanthen-6-one]",toxicity to Artemia salina nauplii,Artemia salina,non-toxic effects
same,50% inhibition of luminescence concentration (EC50) at 30 min,[3],> 237 µg/mL
